Values quoted from earlier work, collected in US20120171270A1, “DUAL ACTION ORGANIC FORMULATION TO CONTROL TWO STAGES OF INSECT PESTS” (priority 2010, published 2012).

Assays:
[1] = test system: gypsy moth larvae; conditions: 16 hours after a 2 minute crawling exposure to glass coated with a 4 mg/litre spinosad solution
[2] = test system: gypsy moth larvae; conditions: 3-day exposure; 13-day evaluation; 2nd instar larvae; red oak leaf disks
[3] = test system: mammalian and avian species; conditions: in vivo
[4] = test system: gypsy moth larvae
[5] = test system: gypsy moth

spinosad
treated larvae paralyzed [1]: 50% | LC50 [2]: 0.0015 mg AI/cm2 | toxicity to mammalian and avian species [3]: little or no toxicity | population reduction at low application rate ([4]; application rate of 0.75 mg/litre): large population reductions | concentrations that effectively controlled larvae ([4]; applied to foliage to run-off, 2nd instar larvae, laboratory and field): 3 ± 50 mg/L | larval population reduction ([4]; at 3 to 50 mg/litre applied to run-off): 95±100% | toxicity in the laboratory, efficacy and persistence in the field versus permethrin ([4]; in vivo): comparable to those achieved with permethrin

CCCCCCCCCC[C@H]1O[C@H]1CCCCC(C)C [disparlure]
mating in low-density populations at lower doses ([5]; 15, 6, and 3 grams per acre): can be suppressed | mating in low-density populations ([5]; 30 grams per acre): suppresses mating
